A short description of data set [1]: Nile Red assay, critical aggregation concentration. Format: physicochemical. The settings on record: PBS, aged 24 hours at 4° C. The method, then: Nile Red assay: The critical aggregation concentration (CAC) for PA nanofibers was determined by diluting the PAs in Nile Red solution. Nile Red undergoes a blue shift in fluorescence as the hydrophobic character of PAs in the solvent increases, with a corresponding increase in fluorescence intensity due to reduced twisted intramolecular charge transfer. 10% MMP- and ROS-Ac2-26 PAs were diluted from 1 mM to 100 nM in PBS containing of 2.5 μM Nile Red and aged for 24 hours at 4° C. The PAs were aliquoted in triplicate onto a 96-well plate, excited at 550 nm, and the fluorescence read from […]. The CAC was determined by plotting the log of the concentration with the corresponding maximum fluorescence intensity, and calculating the concentration at the intersection of the baseline and tangent line to the rising curve.

In data set [2] the test system is atherosclerotic LDLR KO mice. As to the kind of experiment: In vivo proof of concept: PA nanofiber localization in aortic root. Details: species or system mouse. The settings on record: 24 h after intravenous injection, high fat diet 14 weeks, 6 mg kg-1 PA. How it is done:
Mouse Model of Atherosclerosis and In Vivo Proof of Concept: LDLR-KO mice were fed a high fat “Western” diet (Teklad TD.88137) starting at 4 weeks of age. This diet consisted of 20% fat, 0.2% cholesterol, and 34% high sucrose. LDLR-KO mice fed this diet typically develop severe hypercholesterolemia (>800 mg/dL) and hypertriglyceridemia (>300 mg/dL) after only 2 weeks, and by 12 weeks on the high fat diet, atherosclerotic lesions are detected in the aortic root and aortic arch. After 14 weeks on the high fat diet, mice received intravenous injections of PA nanofibers dissolved in PBS (dorsal penile vein in males) under sterile conditions. Mice were briefly anesthetized for injection with inhaled isoflurane. After injection, mice were monitored and allowed to recover from anesthesia in a heated oxygen chamber. […] PA fluorescence was assessed with the HE CY3 filter (Zeiss filter #43) using excitation and emission wavelengths of 550-575 nm and 605-670 nm, respectively. Nuclear staining was performed with DAPI (4′,6-Diamidino-2-Phenylindole, Dilactate, ThermoFisher, Chicago, IL), and assessed with the DAPI filter (Zeiss filter #49) using excitation and emission wavelengths of 365-395 and 445-450 nm, respectively. Tissue autofluorescence was assessed with the green fluorescent protein filter (Zeiss filter #38) using excitation and emission wavelengths of 470-495 and 525-550 nm, respectively. […]

The subject of a further data set is LDLR KO mice. As to the kind of experiment: Targeting of atherosclerosis by IV injected ApoA1 PA nanofibers (Example 3). Format: in vivo, mouse. The method, then: Mouse model of atherosclerosis: To study atherosclerosis, the LDLR KO mouse was used. LDLR KO mice are fed a high fat “western” diet (Teklad TD.88137) starting at 4 weeks of age. This diet consists of 20% fat, 0.2% cholesterol, and 34% high sucrose. LDLR KO mice fed this diet typically develop severe hypercholesterolemia (>800 mg/dL) and hypertriglyceridemia (>300 mg/dL) after only 2 weeks. By 12 weeks on the high fat diet, atherosclerotic lesions are detected in the aortic root and aortic arch on cryosections stained with Oil Red O (Sigma). Atherosclerosis was quantified in the aortic root as a percentage of the aortic root by taking the atherosclerotic area divided by the total aortic root area. Measurements were made with ImageJ software. All protocols for the animal model and procedures in this manuscript were approved by Northwestern University's Institutional Animal Care and Use Committee.
Injection of PA nanofibers: PA nanofibers were dissolved at 2-4 mg/mL concentration in room temperature phosphate buffered saline (PBS). After 14 weeks on the high fat diet, mice received intravenous injections of PA nanofiber dissolved in PBS (dorsal penile vein in males, retro-orbital injection in females) using a 31 G hypodermic insulin needle on a 0.3 mL syringe under sterile conditions and magnification (NIKON SMZ 645 Zoom Stereomicroscope). Mice were briefly anesthetized for injection with inhaled isoflurane. Mice were monitored and allowed to recover from anesthesia in a heated oxygen chamber.
Dose and concentration study: To determine the optimum concentration for targeting efficacy and safety, LDLR KO mice fed the high fat diet for 14 weeks were injected with PA nanofiber at concentrations of 1 mg/mL, 2 mg/mL, and 4 mg/mL at 8 mg/kg in PBS. Similarly, to determine the optimum dose for targeting efficacy and safety, LDLR KO mice fed the high fat diet for 14 weeks were injected at PA nanofiber doses of 8 mg/kg, 6 mg/kg, 4 mg/kg, 3.3 mg/kg, and 1.7 mg/kg at 2 mg/mL in PBS. Safety, optimum dose, and concentration for targeting was assessed by survival of the animal and fluorescent pixel quantification in the aortic root, liver, lungs, kidneys, and spleen.
Tissue processing and imaging: Mice were sacrificed and euthanized under inhaled isoflurane anesthesia by diaphragm disruption and exsanguination. Phlebotomy was performed through direct right ventricular cardiac puncture using a 1 mL syringe and 25 G needle. Perfusion was performed through left ventricular cardiac puncture with 10 mL PBS and 10 mL 10% sucrose solution. The lungs, liver, spleen, kidney, aortic root, aortic arch, and descending aorta were harvested and stored in 10% sucrose for 20 minutes. Organs and vessels were then flash-frozen in Optimal Cutting Temperature embedding medium 4583 (Tissue-Tek®) with liquid nitrogen. Frozen specimens were stored at −80° C. and cryosectioned at […]. Confocal microscopy was performed on a Nikon AIR microscope. Two sets of images were acquired with a 10× Plan Fluor NA 0.3 objective. PAs were identified through quantification of the Alexa Fluor® 546 conjugated dye with 561 nm excitation and a 600/50 nm emission filter.
Images were acquired with spectral detection and spectrally unmixed to accurately separate green autofluorescence from the red Alexa Fluor® 546 signal. Brightfield and fluorescent microscopy were performed using a Zeiss Axio Imager.A2 microscope with AxioVision software (release 4.8.2, 06-2010). All confocal and fluorescent sections were mounted with ProGold Diamond mounting media (Sigma). Slides were stained with Oil Red O to image and quantify atherosclerosis under brightfield microscopy. The elastic laminae were identified using the green fluorescent protein (GFP) filter with an exposure time of 3500 ms under 5× magnification. Nanofibers were identified in the aortic root by presence of Alexa Fluor® 546 on the Cy3 filter under 5-10× magnification, and in the internal organs under 20× magnification. […]

Peptide text beside a SMILES is read from it. * marks the point of attachment. Palmitoyl = CCCCCCCCCCCCCCCC(=O)*

Take “10% MMP-Ac2-26 PA: co-assembly of 10 mol % MMP-Ac2-26 PA, 50 mol % E2 filler PA, and 40% ApoA1 PA (VVAAEEGGGPQGIWGQGKAMVSEFLKQAWFIENEEQEYVQTVK)”: the “critical aggregation concentration (CAC)” value in data set [1] is ~32 µM.
As for `CCCCCCCCCCCCCCCC(=O)N[C@H](C(=O)N[C@H](C(=O)N[C@@H](C)C(=O)N[C@@H](C)C(=O)N[C@@H](CCC(=O)O)C(=O)N[C@@H](CCC(=O)O)C(=O)NCC(=O)N[C@@H](CC(=O)O)C(=O)N[C@@H](Cc1c[nH]c2ccccc12)C(=O)N[C@@H](Cc1ccccc1)C(=O)N[C@@H](CCCCN)C(=O)N[C@@H](C)C(=O)N[C@@H](Cc1ccccc1)C(=O)N[C@@H](Cc1ccc(O)cc1)C(=O)N[C@@H](CC(=O)O)C(=O)N[C@@H](CCCCN)C(=O)N[C@H](C(=O)N[C@@H](C)C(=O)N[C@@H](CCC(=O)O)C(=O)N[C@@H](CCCCN)C(=O)N[C@@H](Cc1ccccc1)C(=O)N[C@@H](CCCCN)C(=O)N[C@@H](CCC(=O)O)C(=O)N[C@@H](C)C(=O)N[C@@H](Cc1ccccc1)C(N)=O)C(C)C)C(C)C)C(C)C` [ApoA1 PA] (Palmitoyl-VVAAEEGDWFKAFYDKVAEKFKEAF-NH2), the “localization of nanofibers to areas of atherosclerotic plaque in the aortic root” value in data set [2] is on record as “localization of the nanofibers to areas of atherosclerotic plaque”. Further, the “binding duration in areas of atherosclerosis” value in the data set with LDLR KO mice (after injection) is “remained localized to areas of atherosclerosis at high concentrations for two days”. Moreover, in the data set on LDLR KO mice (aortic root), the “time post injection when fluorescent pixel analysis was not different from control non-injected mice” value was 10 to 14 days. In addition, the “dose dependence of localization at the aortic root” value in the data set with LDLR KO mice (constant concentration 2 mg/mL) was “Doses of 8 mg/kg and 6 mg/kg were superior to 4 mg/kg, which was superior to 1.7 mg/kg”. The “fluorescent pixels in aortic root, 4 mg/mL vs. 2 mg/mL” value in the data set with LDLR KO mice (constant dose 8 mg/kg, 24 hours after injection) is given as “no significant difference”. In addition, in the data set with LDLR KO mice (mouse, in vivo), the “localization in male versus female LDLR KO mice” value is listed as “no statistically significant difference in localization between the sexes”. For the same compound, the “localization to areas of atherosclerosis” value in the data set with LDLR KO mice (within 24 hours after injection, confocal, Alexa Fluor 546) is “localized to areas of atherosclerosis”.
